Experimental data: patent US11499963B2, “Induction of differentiation of induced pluripotent stem cells into intestinal epithelial cells” (PUBLIC UNIVERSITY CORPORATION NAGOYA CITY UNIVERSITY, priority 2016, dated 2022)

Legend:
[1] = tested on: CYP3A4; assay: Metabolic activity of midazolam (CYP3A4 metabolic activity) in differentiated intestinal epithelial cell-like cells; assay type: cell-based, human; details: VD3 10 nmol/L; cells induced to differentiate using 8-Br-cAMP and IBMX; midazolam 100 μmol/L
Experimental: The metabolic activity was calculated from the amount of 1-hydroxymidazolam in the medium measured using a liquid chromatography-mass spectrometer (LC-MS/MS). After completion of the experiment on metabolism, protein quantification was carried out, and the metabolic activity was corrected by the amount of protein.

[2] = tested on: CYP3A4
[3] = target: T1, ALK4 (Homo sapiens, UniProt P36896); details: cited from earlier work
T1 sequence (P36896 24-505): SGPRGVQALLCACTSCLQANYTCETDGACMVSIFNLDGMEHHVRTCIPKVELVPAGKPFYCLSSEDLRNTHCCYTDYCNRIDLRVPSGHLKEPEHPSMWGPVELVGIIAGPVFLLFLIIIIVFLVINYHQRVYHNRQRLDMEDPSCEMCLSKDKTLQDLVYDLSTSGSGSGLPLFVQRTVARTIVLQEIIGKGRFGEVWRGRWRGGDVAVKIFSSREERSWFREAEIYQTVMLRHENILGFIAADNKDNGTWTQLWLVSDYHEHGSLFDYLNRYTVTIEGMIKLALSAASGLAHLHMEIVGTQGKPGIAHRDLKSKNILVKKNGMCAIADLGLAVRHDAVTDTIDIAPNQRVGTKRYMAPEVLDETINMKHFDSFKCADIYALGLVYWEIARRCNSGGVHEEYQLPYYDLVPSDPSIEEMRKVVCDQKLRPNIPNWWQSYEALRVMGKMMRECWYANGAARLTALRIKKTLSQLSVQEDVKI

[4] = target: T2, ALK5 (Homo sapiens, UniProt P36897); details: cited from earlier work
T2 sequence (P36897 34-503): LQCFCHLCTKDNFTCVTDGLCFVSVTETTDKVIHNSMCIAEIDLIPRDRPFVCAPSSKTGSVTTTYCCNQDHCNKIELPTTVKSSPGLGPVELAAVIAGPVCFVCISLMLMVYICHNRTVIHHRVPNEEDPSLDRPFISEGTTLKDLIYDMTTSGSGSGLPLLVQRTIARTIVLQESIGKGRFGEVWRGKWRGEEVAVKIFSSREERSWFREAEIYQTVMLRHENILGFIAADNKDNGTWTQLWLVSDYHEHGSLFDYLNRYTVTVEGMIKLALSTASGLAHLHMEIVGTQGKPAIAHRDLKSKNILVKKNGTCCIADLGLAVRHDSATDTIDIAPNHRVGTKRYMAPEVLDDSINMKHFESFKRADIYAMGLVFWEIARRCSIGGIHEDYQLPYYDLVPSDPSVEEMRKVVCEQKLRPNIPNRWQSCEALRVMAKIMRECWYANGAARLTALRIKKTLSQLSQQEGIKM

[5] = target: T3, ALK7 (Homo sapiens, UniProt Q8NER5); details: cited from earlier work
T3 sequence (Q8NER5 21-493): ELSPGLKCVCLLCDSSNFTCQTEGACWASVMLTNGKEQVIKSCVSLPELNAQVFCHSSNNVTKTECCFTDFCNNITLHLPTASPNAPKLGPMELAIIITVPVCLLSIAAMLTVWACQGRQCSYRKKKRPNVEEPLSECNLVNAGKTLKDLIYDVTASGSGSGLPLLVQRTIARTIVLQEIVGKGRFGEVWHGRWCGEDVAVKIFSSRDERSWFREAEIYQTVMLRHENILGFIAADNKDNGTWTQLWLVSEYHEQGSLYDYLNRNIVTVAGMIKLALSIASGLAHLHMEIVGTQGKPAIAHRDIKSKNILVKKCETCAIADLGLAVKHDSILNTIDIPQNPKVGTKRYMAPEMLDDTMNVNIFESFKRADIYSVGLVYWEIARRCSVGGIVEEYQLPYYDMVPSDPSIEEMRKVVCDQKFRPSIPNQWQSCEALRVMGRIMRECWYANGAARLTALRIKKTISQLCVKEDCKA

[6] = tested on: OATP; assay: Uptake of estrone-3-sulfate (ES) (OATP transport activity); assay type: cell-based, human; details: BSP 0.2 mmol/L; cells induced to differentiate using 8-Br-cAMP and IBMX
Experimental: (§1) After completion of induction of differentiation, incubation was performed at 37° C. or 4° C. with an uptake solution containing tritium-labeled Gly-Sar or ES. In the Gly-Sar uptake experiment, there was used an uptake solution containing 137 mmol/L sodium chloride, 5.4 mmol/L potassium chloride, 0.81 mmol/L magnesium sulfate, 0.44 mmol/L potassium dihydrogen phosphate, 0.34 mmol/L disodium hydrogen phosphate, 1.3 mmol/L calcium chloride, 4.2 mmol/L sodium hydrogen carbonate, 5.6 mmol/L D-glucose and 10 mmol/L MES and having a pH of 6.0. In the ES uptake experiment, there was used an uptake solution containing 137 mmol/L sodium chloride, 5.4 mmol/L potassium chloride, 0.81 mmol/L magnesium sulfate, 0.44 mmol/L potassium dihydrogen phosphate, 0.34 mmol/L disodium hydrogen phosphate, 1.3 mmol/L calcium chloride, 4.2 mmol/L sodium hydrogen carbonate, 5.6 mmol/L D-glucose, and 10 mmol/L HEPES and having a pH of 7.4. After completion of incubation, uptake was stopped by washing the cells with the ice-cold uptake solution. Thereafter, the cells were solubilized with a 0.2 M sodium hydroxide solution containing 0.5% sodium dodecyl sulfate (SDS), and a scintillation solution was added. The intracellular uptake of Gly-Sar or ES was calculated from the radioactivity measured using a liquid scintillation counter.

[7] = target: T4, PEPT1 (Homo sapiens, UniProt P46059); assay: Uptake of glycylsarcosine (Gly-Sar) (PEPT1 transport activity); assay type: cell-based; details: ibuprofen 3 mmol/L
T4 construct: uptake of glycylsarcosine (Gly-Sar) in the differentiated intestinal epithelial cell-like cells (PEPT1 transport activity); endogenous in cells; host or cells: human iPS cell (iPS-51: Windy)-derived intestinal epithelial cell-like cells
T4 sequence (P46059 1-708): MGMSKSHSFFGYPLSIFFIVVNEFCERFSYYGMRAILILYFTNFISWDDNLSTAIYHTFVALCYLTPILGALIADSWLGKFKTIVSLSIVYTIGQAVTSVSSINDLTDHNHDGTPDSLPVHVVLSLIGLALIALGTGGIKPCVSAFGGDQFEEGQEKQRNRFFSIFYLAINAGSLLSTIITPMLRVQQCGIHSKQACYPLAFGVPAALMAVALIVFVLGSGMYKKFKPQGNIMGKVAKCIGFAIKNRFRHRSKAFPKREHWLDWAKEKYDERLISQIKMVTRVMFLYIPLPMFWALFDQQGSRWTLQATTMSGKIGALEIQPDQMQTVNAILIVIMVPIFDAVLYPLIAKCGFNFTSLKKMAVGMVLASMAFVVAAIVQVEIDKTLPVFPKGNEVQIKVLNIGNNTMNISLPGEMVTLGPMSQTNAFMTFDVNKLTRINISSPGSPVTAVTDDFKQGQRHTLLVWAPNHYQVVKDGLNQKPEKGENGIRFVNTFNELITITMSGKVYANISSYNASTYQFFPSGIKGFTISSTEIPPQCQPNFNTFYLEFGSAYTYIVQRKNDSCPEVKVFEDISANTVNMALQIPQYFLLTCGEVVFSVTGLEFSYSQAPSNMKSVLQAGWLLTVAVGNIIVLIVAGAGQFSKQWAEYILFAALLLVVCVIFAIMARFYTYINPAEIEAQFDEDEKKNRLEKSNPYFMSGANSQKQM
Experimental: as §1

[8] = tested on: mucin 2; assay: Expression (mRNA level) of mucin 2 in iPS cell-derived intestinal epithelial cell-like cells; details: for expression (mRNA level) of mucin 2 (mucosa protecting action): added for 6 days, irsogladine 10, 40 μM, rebamipide 50, 100, 250, 1000 μM, vs control

C=C1/C(=C\C=C2/CCC[C@]3(C)[C@@H]([C@H](C)CCCC(C)(C)O)CC[C@@H]23)C[C@@H](O)C[C@@H]1O [1α,25-dihydroxyvitamin D3]
activity of CYP3A4 (1-hydroxymidazolam formation) upon inducer treatment [1]: significantly increased
induction of CYP3A4 expression [2]: observed

Cc1cccc(-c2nn(C(=S)Nc3ccccc3)cc2-c2ccnc3ccccc23)n1 [A-83-01]
inhibitory activity against TGF-β receptor ALK4 [3]: shows inhibitory activity
inhibitory activity against TGF-β receptor ALK5 [4]: shows inhibitory activity
inhibitory activity against TGF-β receptor ALK7 [5]: shows inhibitory activity

O=C1OC(c2ccc(O)c(S(=O)(=O)O)c2)(c2ccc(O)c(S(=O)(=O)O)c2)c2c(Br)c(Br)c(Br)c(Br)c21 [BSP, bromsulphthalein]
uptake of ES in the presence of inhibitor [6]: significantly reduced

CC(C)Cc1ccc(C(C)C(=O)O)cc1 (centres unmarked) [ibuprofen]
Gly-Sar uptake in the presence of inhibitor ([7]; cells by the conventional differentiation method): significantly reduced
Gly-Sar uptake in the presence of inhibitor ([7]; cells induced to differentiate using 8-Br-cAMP and IBMX): significantly reduced

Nc1nc(N)nc(-c2cc(Cl)ccc2Cl)n1 [irsogladine]
expression (mRNA level) of mucin 2 (mucosa protecting action) [8]: increased

CC(C(=O)O)c1cccc(C(=O)c2ccccc2)c1 (centres unmarked) [ketoprofen]
expression (mRNA level) of mucin 2 (mucosa damaging action) ([8]; ketoprofen 200 μM for 6 days, excepted from the decrease seen with NSAIDs): except for ketoprofen-200

O=C(NC(Cc1cc(=O)[nH]c2ccccc12)C(=O)O)c1ccc(Cl)cc1 (centres unmarked) [rebamipide]
expression (mRNA level) of mucin 2 (mucosa protecting action) [8]: increased
